± gives the expanded uncertainty stated by the source.
Test: mn = molality of the nth substance listed, in mol/kg
Conditions: 101 kPa, Liquid, Alternating current cell with electrodes

O=S(=O)([O-])[O-].[Fe+2] [iron(II) sulfate] + O
electrical conductivity [S/m]
Conditions	278.1 K	283.1 K	298.15 K	308.15 K	318.15 K	343.15 K	363.15 K
m1 = 0.00112	0.06212 ± 0.00025	0.06791 ± 0.00027	0.08697 ± 0.00035	0.09771 ± 0.00039	0.1075 ± 0.0004	0.1235 ± 0.0005	0.1274 ± 0.0005
m1 = 0.00212	0.06435 ± 0.00026	0.07287 ± 0.00029	0.09366 ± 0.00037	0.1063 ± 0.0004	0.1165 ± 0.0005	0.1409 ± 0.0006	0.1543 ± 0.0006
m1 = 0.01287	0.1183 ± 0.0005	0.1326 ± 0.0005	0.1784 ± 0.0007	0.2092 ± 0.0008	0.2419 ± 0.001	0.3214 ± 0.0013	0.3988 ± 0.0016
m1 = 0.1121	0.2469 ± 0.001	0.269 ± 0.0011	0.3516 ± 0.0014	0.3913 ± 0.0016	0.4714 ± 0.0019	–	–
m1 = 0.2576	1.238 ± 0.005	1.415 ± 0.0057	1.98 ± 0.0079	2.303 ± 0.0092	2.692 ± 0.011	3.631 ± 0.015	4.11 ± 0.016

[Cl-].[Li+] [lithium chloride] + O
electrical conductivity [S/m]
Conditions	278.15 K	283.15 K	298.15 K	308.15 K	318.15 K	343.15 K	363.15 K
m1 = 8.5e-05	0.0005986 ± 2.4e-06	0.0006826 ± 2.7e-06	0.0009588 ± 3.8e-06	0.00117 ± 5e-06	0.001388 ± 6e-06	0.001978 ± 8e-06	0.002483 ± 1e-05
m1 = 0.000952	0.006496 ± 2.6e-05	0.007487 ± 3e-05	0.01069 ± 4e-05	0.01311 ± 5e-05	0.01528 ± 6e-05	0.02191 ± 9e-05	0.02774 ± 0.00011
m1 = 0.00845	0.05562 ± 0.00022	0.06414 ± 0.00026	0.09167 ± 0.00037	0.1123 ± 0.0005	0.1315 ± 0.0005	0.1886 ± 0.0008	0.2366 ± 0.0009
m1 = 0.09523	0.5516 ± 0.0022	0.6326 ± 0.0025	0.9019 ± 0.0036	1.099 ± 0.0044	1.276 ± 0.0051	1.809 ± 0.0072	2.257 ± 0.009
m1 = 0.9613	4.317 ± 0.017	4.986 ± 0.02	7.13 ± 0.029	8.35 ± 0.033	9.794 ± 0.039	12.64 ± 0.051	15.57 ± 0.062

— the NIST ThermoML archive (doi:10.1021/je101012n)
